Where two headings read alike, the source gives them in different places.
Experiments:
[1] = target: T1, Norovirus 3CL^pro (Norovirus GII.4, UniProt P54634); assay: Cell-based FlipGFP assay of 3CLpro inhibition; set-up: species or system Norovirus genotype GII.4
T1 sequence (P54634 1009-1189): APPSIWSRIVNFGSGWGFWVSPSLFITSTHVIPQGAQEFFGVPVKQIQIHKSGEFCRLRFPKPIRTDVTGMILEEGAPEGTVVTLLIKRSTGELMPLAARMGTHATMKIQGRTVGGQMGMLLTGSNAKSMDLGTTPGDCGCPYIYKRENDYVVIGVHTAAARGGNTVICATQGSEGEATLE

[2] = tested on: Norovirus 3CL^pro; assay: Western blot of FlipGFP cleavage; format: cell-based; settings: at higher inhibitor concentrations, compared with C139A control
[3] = tested on: VEGFR2; settings: quoted in Description column of Table S1; no reference given; cited from earlier work
[4] = tested on: c-Met; settings: quoted in Description column of Table S1; no reference given; cited from earlier work

**Q.** With `CCc1cc(Nc2nccc(-c3c(-c4ccc(OC)c(C(=O)Nc5c(F)cccc5F)c4)nc4ccccn34)n2)c(OC)cc1N1CCC(N2CCN(S(C)(=O)=O)CC2)CC1` [GSK1904529A] as the compound, how does the IC50 [1] read?
**A.** 3940 ± 230 nM

**Q.** Which IC50 [1] does the source give for `O=c1[nH]c2ccccc2n1C1CCN(Cc2ccc(-c3[nH]c4cc5ncnc5cc4nc3-c3ccccc3)cc2)CC1` [Akt inhibitor VIII] here?
**A.** 590 ± 120 nM

**Q.** With `CC(C)C[C@H](NC(=O)OCc1ccccc1)C(=O)N[C@@H](CC1CCNC1=O)C(O)S(=O)(=O)O` (some centres unmarked) [GC376] as the compound, how does the IC50 ([1]; HEK293T cells co-transfected with 3CLpro-FlipGFP and 3CLpro, compound added 6 h, fluorescence read 24 h post-transfection, triplicate, read-out: IC50) read?
**A.** 2280 ± 170 nM

**Q.** For `O=C(c1ccc(Nc2nccc(-c3cc4ccccc4s3)n2)cc1)N1CCC(N2CCCC2)CC1` [IKK 16], which IC50 [1] is on record?
**A.** 5090 ± 160 nM

**Q.** Which IC50 [1] does the source give for `CC(=O)N1CCC(c2cc(-c3ccc(NC(=O)c4cccn(-c5ccc(F)cc5)c4=O)cc3F)c3c(N)ncnn23)CC1` [TAM-IN-2] here?
**A.** 1220 ± 440 nM

**Q.** For `N#Cc1ccc(O[C@H]2CC[C@H](NC(=O)c3ccc(N4CCC(CN5CCN(c6cc7c(cc6F)C(=O)N(C6CCC(=O)NC6=O)C7=O)CC5)CC4)nn3)CC2)cc1Cl` (some centres unmarked) [Bavdegalutamide], which IC50 [1] is on record?
**A.** 970 ± 240 nM

**Q.** For `CN(C)C1CCN(C(=O)c2ccc(NC(=O)Nc3ccc(-c4nc(N5CCOCC5)nc(N5CCOCC5)n4)cc3)cc2)CC1` [Gedatolisib], which “Proteolytic cleavage of FlipGFP (Western blot)” value [2] is on record?
**A.** proteolytic cleavage was markedly reduced

**Q.** Which IC50 [3] does the source give for `CN1CCN(C2CCN(C(=O)Nc3cc(Oc4ccc(NC(=O)C5(C(=O)Nc6ccc(F)cc6)CC5)c(F)c4)ccn3)CC2)CC1` [Golvatinib] here?
**A.** 16 nM

**Q.** And the IC50 [4]?
**A.** 14 nM

**Q.** For `O=C(Nc1cccc(-c2nc(-c3ccc(NC(=O)c4cccnc4)cc3Cl)no2)c1)Nc1ccc(NC(=O)C2CC2)c(C(F)(F)F)c1` [EGFR-IN-8], which “Proteolytic cleavage of FlipGFP (Western blot)” value [2] is on record?
**A.** proteolytic cleavage was markedly reduced

**Q.** What about the IC50 [1] of the same compound?
**A.** 290 ± 90 nM

From paper PMC12197363 (Viruses, 2025)
